The source of these data is US20200181121A1, “Cocrystal of Telmisartan and Hydrochlorothiazide” (SHANGHAI INSTITUTE OF MATERIA MEDICA, CHINESE ACADEMY OF …, priority 2017, published 2020).

Molecules are shown by their SMILES.

This data set is described as follows: Accelerated stability test (ICH Q1E), change of the content. The conditions noted are these: 40°C±2°C, RH 75±5%, polyethylene-sealed bag. The data set is classed as physicochemical. The procedure:
According to the description in “Stability Data Evaluation” of ICH guidelines Q1E, a comparison of accelerated stability test (at 40° C.±2° C., RH 75±5%) of cocrystal of hydrochlorothiazide and telmisartan obtained in Example 1 with that of telmisartan or hydrochlorothiazide itself was conducted respectively. The cocrystal of telmisartan and hydrochlorothiazide, telmisartan, and hydrochlorothiazide were double packaged using the polyethylene-sealed bag respectively, stood for 1, 2 or 3 months under the accelerated stability test conditions (at 40° C.±2° C., RH 75±5%). Then the samples were taken and measured for the change of the content.

Regarding `CCCc1nc2c(C)cc(-c3nc4ccccc4n3C)cc2n1Cc1ccc(-c2ccccc2C(=O)O)cc1` [Telmisartan, 4′-[[2-propyl-4-methyl-6(1-methyl-benzimidazol-2-yl)-benzimidazol-1-yl]methyl]-2-biphenylcarboxylic acid], the content of telmisartan is 100% (0 month), 97.28% (1 month), 94.47% (2 months) and 94.20% (3 months).

In the case of `NS(=O)(=O)c1cc2c(cc1Cl)NCNS2(=O)=O` [Hydrochlorothiazide, 6-chloro-3,4-dihydro-2H-1,2,4-benzothiadiazine-7-sulfonamido-1,1-dioxide], the content of hydrochlorothiazide (0 month) worked out at 100%, the content of hydrochlorothiazide (1 month) is reported as 97.37%, the content of hydrochlorothiazide (2 months) was found to be 96.34% and the content of hydrochlorothiazide (3 months) is listed as 95.28%.
